Molecules are shown by their SMILES.

In this experiment the test system is HIV. Briefly: MT4 assay: antiviral HIV activity (cell protection, cell titer glo readout at 96 hours). Type of experiment: cell-based. Conditions: Human immunodeficiency virus 1, MT4, 96 h, MT4 cells, cell titer glo readout at 96 hours, 10 point dose response; read-out: HIV MT4 Assay IC50. Summed up:
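MT-4 cells infected with HIV, with inhibition readout by CellTiter-Glo luminescence at 96 h relative to no-compound control. Cytotoxicity measured in parallel under the same conditions. IC50 from a 10-point, 3-4-fold dilution series spanning >1000-fold, fitted with a four-parameter logistic equation.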
A general note: ATP-based viability assays read luminescence as a measure of living cells.
Usually IC50 stands for the concentration that inhibits the measured activity by half. Turning to `Cc1nc2c(cc(C(=O)N3CCC(C)(C)CC3)n2C)c(-c2cc(F)c3c(c2C)CCCO3)c1[C@H](OC(C)(C)C)C(=O)O` [Example 258], the IC50 was 31.4 nM.
For `Cc1nc2c(cc(C(=O)NCCC3CCCCC3)n2C)c(-c2cc(F)c3c(c2C)CCCO3)c1[C@H](OC(C)(C)C)C(=O)O` [Example 259], the IC50 amounted to 1.9 nM.
Turning to `Cc1nc2c(cc(C(=O)NCc3ccc4c(c3)OCO4)n2C)c(-c2cc(F)c3c(c2C)CCCO3)c1[C@H](OC(C)(C)C)C(=O)O` [Example 260], the IC50 came to 1.9 nM.
For the compound `CCN(C(=O)c1cc2c(-c3cc(F)c4c(c3C)CCCO4)c([C@H](OC(C)(C)C)C(=O)O)c(C)nc2n1C)C1CCCCC1` [Example 261], the concentration for half-maximal inhibition (IC50) is 46.8 nM.
On to `Cc1nc2c(cc(C(=O)NCCc3cccnc3)n2C)c(-c2cc(F)c3c(c2C)CCCO3)c1[C@H](OC(C)(C)C)C(=O)O` [Example 262], for which the half-inhibitory concentration (IC50) came out at 103 nM.
As for `Cc1nc2c(cc(C(=O)NCc3ccc(Cl)cc3)n2C)c(-c2cc(F)c3c(c2C)CCCO3)c1[C@H](OC(C)(C)C)C(=O)O` [Example 263], the 50% inhibitory concentration (IC50) was 3.1 nM.
Take `Cc1nc2c(cc(C(=O)NCC3COC3)n2C)c(-c2cc(F)c3c(c2C)CCCO3)c1[C@H](OC(C)(C)C)C(=O)O` [Example 264]: the IC50 stood at 454 nM.
With `Cc1nc2c(cc(C(=O)NCc3cccc(F)c3)n2C)c(-c2cc(F)c3c(c2C)CCCO3)c1[C@H](OC(C)(C)C)C(=O)O` [Example 265], the IC50 was determined as 4.8 nM.
Consider `Cc1nc2c(cc(C(=O)NCc3cccnc3)n2C)c(-c2cc(F)c3c(c2C)CCCO3)c1[C@H](OC(C)(C)C)C(=O)O` [Example 266], for which the half-inhibitory concentration (IC50) stood at 146 nM.
The same measure for `Cc1nc2c(cc(C(=O)NCc3ccccn3)n2C)c(-c2cc(F)c3c(c2C)CCCO3)c1[C@H](OC(C)(C)C)C(=O)O` [Example 267]: 26.1 nM.
On to `Cc1nc2c(cc(C(=O)NCCC(C)C)n2C)c(-c2cc(F)c3c(c2C)CCCO3)c1[C@H](OC(C)(C)C)C(=O)O` [Example 268], for which the half-maximal inhibitory concentration (IC50) amounted to 3.4 nM.
`COCCN(CCOC)C(=O)c1cc2c(-c3cc(F)c4c(c3C)CCCO4)c([C@H](OC(C)(C)C)C(=O)O)c(C)nc2n1C` [Example 269]: the IC50 was found to be 80.5 nM.
The same measure for `Cc1nc2c(cc(C(=O)N(C)C)n2C)c(-c2cc(F)c3c(c2C)CCCO3)c1[C@H](OC(C)(C)C)C(=O)O` [Example 270]: 112 nM.
As for `Cc1nc2c(cc(C(=O)NC3Cc4ccccc4C3)n2C)c(-c2cc(F)c3c(c2C)CCCO3)c1[C@H](OC(C)(C)C)C(=O)O` [Example 271], the concentration for half-maximal inhibition (IC50) worked out at 1.6 nM.
The same measure for `Cc1nc2c(cc(C(=O)NCCN3CCCCC3)n2C)c(-c2cc(F)c3c(c2C)CCCO3)c1[C@H](OC(C)(C)C)C(=O)O` [Example 272]: 294 nM; for `Cc1nc2c(cc(C(=O)NCCCN3CCCC3=O)n2C)c(-c2cc(F)c3c(c2C)CCCO3)c1[C@H](OC(C)(C)C)C(=O)O` [Example 273]: 939 nM; for `Cc1nc2c(cc(C(=O)NCc3ccncc3)n2C)c(-c2cc(F)c3c(c2C)CCCO3)c1[C@H](OC(C)(C)C)C(=O)O` [Example 274]: 208 nM.
Turning to `Cc1nc2c(cc(C(=O)NCCN3CCCC3)n2C)c(-c2cc(F)c3c(c2C)CCCO3)c1[C@H](OC(C)(C)C)C(=O)O` [Example 275], the 50% inhibitory concentration (IC50) was 1000 nM.
Consider `Cc1nc2c(cc(C(=O)NCC3CCC3)n2C)c(-c2cc(F)c3c(c2C)CCCO3)c1[C@H](OC(C)(C)C)C(=O)O` [Example 276], for which the IC50 was found to be 10 nM.
For `Cc1nc2c(cc(C(=O)N3CCN(C(C)C)CC3)n2C)c(-c2cc(F)c3c(c2C)CCCO3)c1[C@H](OC(C)(C)C)C(=O)O` [Example 277], the IC50 turned out to be 100 nM.
Turning to `Cc1nc2c(cc(C(=O)N3CCC(N4CCCCC4)CC3)n2C)c(-c2cc(F)c3c(c2C)CCCO3)c1[C@H](OC(C)(C)C)C(=O)O` [Example 278], the IC50 was 110 nM.
With `COC(C)(C)CCNC(=O)c1cc2c(-c3cc(F)c4c(c3C)CCCO4)c([C@H](OC(C)(C)C)C(=O)O)c(C)nc2n1C` [Example 279], the IC50 was found to be 10 nM.
`Cc1nc2c(cc(C3CCC(C)(C)CC3)n2C)c(-c2cc(F)c3c(c2C)CCCO3)c1[C@H](OC(C)(C)C)C(=O)O` [Example 283]: the IC50 is 400 nM.
The result for `Cc1nc2c(cc(CCc3ccnc4ccccc34)n2C)c(-c2cc(F)c3c(c2C)CCCO3)c1[C@H](OC(C)(C)C)C(=O)O` [Example 284] reads 15.7 nM; that for `Cc1nc2c(cc(CCc3ccncc3)n2C)c(-c2cc(F)c3c(c2C)CCCO3)c1[C@H](OC(C)(C)C)C(=O)O` [Example 285], 46.6 nM.
The same measure for `Cc1nc2c(cc(CCc3ccc4cnn(C)c4c3)n2C)c(-c2cc(F)c3c(c2C)CCCO3)c1[C@H](OC(C)(C)C)C(=O)O` [Example 286]: 15 nM; for `Cc1nc2c(cc(CN3CCCN(C4COC4)CC3)n2C)c(-c2cc(F)c3c(c2C)CCCO3)c1[C@H](OC(C)(C)C)C(=O)O` [Example 289]: 171 nM.
Turning to `COC[C@H]1CCCN1Cc1cc2c(-c3cc(F)c4c(c3C)CCCO4)c([C@H](OC(C)(C)C)C(=O)O)c(C)nc2n1C` [Example 290], the IC50 was 48.1 nM.
As for `Cc1nc2c(cc(CN3CCc4ccc(N5CCCCC5)cc4C3)n2C)c(-c2cc(F)c3c(c2C)CCCO3)c1[C@H](OC(C)(C)C)C(=O)O` [Example 291], the IC50 amounted to 44.4 nM.
For `Cc1nc2c(cc(CN3CCC[C@H]3C(=O)Nc3ccc4c(cnn4C)c3)n2C)c(-c2cc(F)c3c(c2C)CCCO3)c1[C@H](OC(C)(C)C)C(=O)O` [Example 292], the concentration for half-maximal inhibition (IC50) came to 41.3 nM.
As to `Cc1nc2c(cc(CN3CC[C@@H](NC(=O)c4ccc5c(cnn5C)c4)C3)n2C)c(-c2cc(F)c3c(c2C)CCCO3)c1[C@H](OC(C)(C)C)C(=O)O` [Example 293], the half-maximal inhibitory concentration (IC50) was 44.3 nM.
For the compound `Cc1nc2c(cc(CN3CCC[C@H](NC(=O)c4ccc5c(cnn5C)c4)C3)n2C)c(-c2cc(F)c3c(c2C)CCCO3)c1[C@H](OC(C)(C)C)C(=O)O` [Example 294], the IC50 is 38.6 nM.
The same measure for `Cc1nc2c(cc(CN3CCC[C@@H]3CO)n2C)c(-c2cc(F)c3c(c2C)CCCO3)c1[C@H](OC(C)(C)C)C(=O)O` [Example 295]: 51.2 nM; for `Cc1nc2c(cc(CN(C)C(=O)c3ccc4c(cnn4C)c3)n2C)c(-c2cc(F)c3c(c2C)CCCO3)c1[C@H](OC(C)(C)C)C(=O)O` [Example 296]: 28.5 nM.
In the case of `Cc1nc2c(cc(CCC(=O)Nc3ccc4c(cnn4C)c3)n2C)c(-c2cc(F)c3c(c2C)CCCO3)c1[C@H](OC(C)(C)C)C(=O)O` [Example 298], the half-inhibitory concentration (IC50) was 258 nM.
The same measure for `Cc1nc2c(cc(CCC(=O)N(C)c3ccc4c(cnn4C)c3)n2C)c(-c2cc(F)c3c(c2C)CCCO3)c1[C@H](OC(C)(C)C)C(=O)O` [Example 299]: 39.3 nM; for `Cc1nc2c(cc(-c3nnc(N4CCC(C)CC4)o3)n2C)c(-c2cc(F)c3c(c2C)CCCO3)c1[C@H](OC(C)(C)C)C(=O)O` [Example 301]: 3.9 nM; for `Cc1nc2c(cc(-c3nnc(N4CCCN(C5COC5)CC4)o3)n2C)c(-c2cc(F)c3c(c2C)CCCO3)c1[C@H](OC(C)(C)C)C(=O)O` [Example 302]: 44.2 nM.
The same measure for `COC1CCN(c2nnc(-c3cc4c(-c5cc(F)c6c(c5C)CCCO6)c([C@H](OC(C)(C)C)C(=O)O)c(C)nc4n3C)o2)CC1` [Example 303]: 3.9 nM.
Turning to `Cc1nc2c(cc(-c3nnc(NCC4CCOCC4)o3)n2C)c(-c2cc(F)c3c(c2C)CCCO3)c1[C@H](OC(C)(C)C)C(=O)O` [Example 304], the IC50 turned out to be 40.9 nM.
As to `Cc1nc2c(cc(-c3nnc(N(C)CCN4CCCC4)o3)n2C)c(-c2cc(F)c3c(c2C)CCCO3)c1[C@H](OC(C)(C)C)C(=O)O` [Example 305], the IC50 was 44.9 nM.
`Cc1nc2c(cc(-c3nnc(N4CCCN(C)CC4)o3)n2C)c(-c2cc(F)c3c(c2C)CCCO3)c1[C@H](OC(C)(C)C)C(=O)O` [Example 306]: the 50% inhibitory concentration (IC50) is 51.8 nM.
For the compound `COCCN(C)c1nnc(-c2cc3c(-c4cc(F)c5c(c4C)CCCO5)c([C@H](OC(C)(C)C)C(=O)O)c(C)nc3n2C)o1` [Example 307], the IC50 worked out at 12.3 nM.
Consider `Cc1nc2c(cc(-c3nnc(N(C)C)o3)n2C)c(-c2cc(F)c3c(c2C)CCCO3)c1[C@H](OC(C)(C)C)C(=O)O` [Example 308], for which the 50% inhibitory concentration (IC50) worked out at 14 nM.
Regarding `Cc1nc2c(cc(-c3nnc(N4CC5CN(C6COC6)CC5C4)o3)n2C)c(-c2cc(F)c3c(c2C)CCCO3)c1[C@H](OC(C)(C)C)C(=O)O` (stereo partly drawn) [Example 309], the IC50 is 46 nM.
The same measure for `Cc1nc2c(cc(-c3nnc(N4CCOCC4)o3)n2C)c(-c2cc(F)c3c(c2C)CCCO3)c1[C@H](OC(C)(C)C)C(=O)O` [Example 310]: 15.4 nM; for `Cc1nc2c(cc(-c3nnc(N4CCCC4)o3)n2C)c(-c2cc(F)c3c(c2C)CCCO3)c1[C@H](OC(C)(C)C)C(=O)O` [Example 311]: 4.5 nM.
For the compound `Cc1nc2c(cc(-c3nnc(N4CCN(C)CC4)o3)n2C)c(-c2cc(F)c3c(c2C)CCCO3)c1[C@H](OC(C)(C)C)C(=O)O` [Example 312], the concentration for half-maximal inhibition (IC50) is 19.9 nM.
As for `Cc1nc2c(cc(-c3nnc(CN4CCCCC4)o3)n2C)c(-c2cc(F)c3c(c2C)CCCO3)c1[C@H](OC(C)(C)C)C(=O)O` [Example 313], the IC50 came to 8.4 nM.
As to `Cc1nc2c(cc(-c3nnc(N4CCC(F)(F)CC4)o3)n2C)c(-c2cc(F)c3c(c2C)CCCO3)c1[C@H](OC(C)(C)C)C(=O)O` [Example 314], the half-maximal inhibitory concentration (IC50) is 7.6 nM.
For `Cc1nc2c(cc(-c3nnc(N4CCN(C5COC5)CC4)o3)n2C)c(-c2cc(F)c3c(c2C)CCCO3)c1[C@H](OC(C)(C)C)C(=O)O` [Example 315], the IC50 came to 40.6 nM.
Turning to `Cc1nc2c(cc(-c3nnc(N4CCS(=O)(=O)CC4)o3)n2C)c(-c2cc(F)c3c(c2C)CCCO3)c1[C@H](OC(C)(C)C)C(=O)O` [Example 316], the 50% inhibitory concentration (IC50) was 566 nM.
Take `Cc1nc2c(cc(-c3nnc(N4CCC(N5CCCCC5)CC4)o3)n2C)c(-c2cc(F)c3c(c2C)CCCO3)c1[C@H](OC(C)(C)C)C(=O)O` [Example 317]: the IC50 was found to be 118 nM.
As for `Cc1nc2c(cc(-c3nnc(N4CCC(N5CCOCC5)CC4)o3)n2C)c(-c2cc(F)c3c(c2C)CCCO3)c1[C@H](OC(C)(C)C)C(=O)O` [Example 318], the IC50 is 14.2 nM.

The record behind these values is patent US20150191469A1, “COMPOUNDS AND METHODS FOR TREATING HIV” (priority 2012, published 2015).
